Measured values as given in US20240189277A1, “OPHTHALMIC FORMULATIONS FOR SUSTAINED NEUROPROTECTION” (priority 2021, published 2024).

Experiments:
primary mouse RGCs = test: Retinal ganglion cell (RGC) viability assay (CellTiter-Glo); type: cell-based; conditions: concentrations as high as 10 mg/mL; with 1 μM sunitinib malate; 72 h
Procedure: Mouse RGCs were purified as described ny Welsbie, D. S., et al., Proceedings of the National Academy of Sciences of the United States of America, 2013. 110(10): p. 4045-4050. Purified cells were plated on a poly-D-lysine/laminin coated 384-well culture dish at 4,000 cells per well and cultured in Neurobasal media supplemented with B-27, N-2, L-glutamine, and penicillin/streptomycin. Sunitinib malate (1 μM) was dissolved in dimethyl sulfoxide (DMSO) and added at the same time cells were plated (250 nL into 50 μL of media) to promote RGC survival. Then, either PBS or different volumes of sodium pamoate dissolved in DMSO was added at the concentrations indicated (0.1, 1, 10 mg/mL) to determine whether there was any effect on RGC survival. A PBS control was included for each pamoic acid concentration to account for dilutional effects. After cells were cultured for 72 h at 37° C., viability was measured by CellTiter-Glo (Promega) luminescence.

physchem = conditions: 37 °C, aqueous buffer, thermodynamic from solid
Procedure: To measure solubility, 5 mg of sunitinib malate or SPC complex was placed in microcentrifuge tubes with 1 mL of PBS. The samples were then placed on an orbital shaker (150 rpm) in an incubator at 37° C. After 7 days, samples were collected and centrifuged at 17,000 rcf for 30 min. The supernatant was collected, and concentrations were measured using HPLC (Shimadzu Prominence LC-20). Supernatant samples were mixed 1:10 with acetonitrile containing 0.1% trifluoroacetic acid. Acetonitrile and water was used as a mobile phase at a ratio of 55:45. Samples were eluted isocratically at a flow rate of 1 mL/min through a C18-reversed phase column at 40° C. UV absorbance was monitored at 431 nm.

[1] = tested on: corneal neovascularization; conditions: rats; cited from earlier work

Row | solubility at 7 days (physchem) [µg/mL] | SMILES | effect on primary mouse RGC survival compared to PBS (primary mouse RGCs) | effect on corneal neovascularization after subconjunctival injection [1]
1 | – | O=C(O)c1cc2ccccc2c(Cc2c(O)c(C(=O)O)cc3ccccc23)c1O [Pamoic acid] | no detrimental effect | –
2 | 525 ± 63 | CCN(CC)CCNC(=O)c1c(C)[nH]c(/C=C2\C(=O)Nc3ccc(F)cc32)c1C [sunitinib malate, Sunitinib malate] | – | no effect on neovascularization
